In US10294202B2, “Pyrrolidinones as herbicides” (FMC Corporation, priority 2013, dated 2019):

What was measured:
[1] = test system: cupgrass, woolly; assay: Test C pre-/postemergence herbicide test; type: in vivo, Eriochloa villosa
Procedure, shortened: (§1)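 Test compounds, formulated in a surfactant-containing non-phytotoxic solvent blend, are applied to seeded loam/sand soil (preemergence) and to young plants at the 1- to 4-leaf stage in peat-based medium (postemergence). Plants stay 13 to 15 days under greenhouse conditions, then are scored visually relative to controls, 0 = no effect, 100 = complete control.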

[2] = test system: cocklebur; assay: Test C pre-/postemergence herbicide test; type: in vivo, Xanthium strumarium
Procedure, shortened: as §1

[3] = test system: nightshade; assay: Test C pre-/postemergence herbicide test; type: in vivo, Solanum ptycanthum; conditions: Preemergence
Procedure, shortened: as §1

[4] = test system: bromegrass, downy; assay: Test C pre-/postemergence herbicide test; type: in vivo, Bromus tectorum
Procedure, shortened: as §1

[5] = test system: foxtail, green; assay: Test C pre-/postemergence herbicide test; type: in vivo, Setaria viridis
Procedure, shortened: as §1

[6] = test system: chickweed; assay: Test C postemergence herbicide test; type: in vivo, Stellaria media
Source text: At the same time, plants selected from these crop and weed species and also barley (winter barley, Hordeum vulgare), […]), chickweed (common chickweed, Stellaria media), deadnettle (henbit deadnettle, Lamium amplexicaule), and canarygrass (littleseed canarygrass, Phalaris minor) were planted in pots containing Redi-Earth® planting medium (Scotts Company, 14111 Scottslawn Road, Marysville, Ohio 43041) comprising spaghnum peat moss, vermiculite, wetting agent and starter nutrients and treated with postemergence applications of test chemicals formulated in the same manner. Plants ranged in height from 2 to 18 cm (1- to 4-leaf stage) for postemergence treatments. Treated plants and controls were maintained in a greenhouse for 13 to 15 days, after which time all species were compared to controls and visually evaluated. Plant response ratings, summarized in Table C, are based on a scale of 0 to 100 where 0 is no effect and 100 is complete control. A dash (-) response means no test result.

[7] = test system: goosegrass; assay: Test C pre-/postemergence herbicide test; type: in vivo, Eleusine indica
Procedure, shortened: as §1

[8] = test system: surinam grass; assay: Test C pre-/postemergence herbicide test; type: in vivo, Brachiaria decumbens
Procedure, shortened: as §1

[9] = test system: Russian thistle; assay: Test C pre-/postemergence herbicide test; type: in vivo, Salsola kali; conditions: Preemergence
Source text: Seeds of plant species selected from blackgrass (Alopecurus myosuroides), ryegrass, Italian (Italian ryegrass, Lolium multiflorum), wheat (winter wheat, Triticum aestivum), galium (catchweed bedstraw, Galium aparine), corn (Zea mays), crabgrass, large (large crabgrass, Digitaria sanguinalis), foxtail, giant (giant foxtail, Setaria faberii), johnsongrass (Sorghum halepense), lambsquarters (Chenopodium album), morningglory (Ipomoea coccinea), nutsedge, yellow (yellow nutsedge, Cyperus esculentus), pigweed (Amaranthus retroflexus), ragweed (common ragweed, Ambrosia elatior), soybean (Glycine max), barnyardgrass (Echinochloa crus-galli), oilseed rape (Brassica napus), waterhemp (common waterhemp, Amaranthus rudis), kochia (Kochia scoparia), oat, wild (wild oat, Avena fatua), surinam grass (Brachiaria decumbens), foxtail, green (green foxtail, Setaria viridis), goosegrass (Eleusine indica), bromegrass, downy (downy bromegrass, Bromus tectorum), nightshade (eastern black nightshade, Solanum ptycanthum), cocklebur (common cocklebur, Xanthium strumarium), cupgrass, woolly (woolly cupgrass, Eriochloa villosa), bermudagrass (Cynodon dactylon), sunflower, (common oilseed sunflower, Helianthus annuus), Russian thistle (Salsola kali) and velvetleaf (Abutilon theophrasti) were planted into a blend of loam soil and sand and treated preemergence with test chemicals formulated in a non-phytotoxic solvent mixture which included a surfactant. At the same time, plants selected from these crop and weed species and also barley (winter barley, Hordeum vulgare), […]), chickweed (common chickweed, Stellaria media), deadnettle (henbit deadnettle, Lamium amplexicaule), and canarygrass (littleseed canarygrass, Phalaris minor) were planted in pots containing Redi-Earth® planting medium (Scotts Company, 14111 Scottslawn Road, Marysville, Ohio 43041) comprising spaghnum peat moss, vermiculite, wetting agent and starter nutrients and treated with postemergence applications of test chemicals formulated in the same manner. Plants ranged in height from 2 to 18 cm (1- to 4-leaf stage) for postemergence treatments. Treated plants and controls were maintained in a greenhouse for 13 to 15 days, after which time all species were compared to controls and visually evaluated. Plant response ratings, summarized in Table C, are based on a scale of 0 to 100 where 0 is no effect and 100 is complete control. A dash (-) response means no test result.

[10] = test system: bermudagrass; assay: Test C pre-/postemergence herbicide test; type: in vivo, Cynodon dactylon
Procedure, shortened: as §1

[11] = test system: sunflower; assay: Test C pre-/postemergence herbicide test; type: in vivo, Helianthus annuus; conditions: Preemergence
Procedure, shortened: as §1

[12] = Postemergence, 31 g ai/ha, scale 0 (no effect) to 100 (complete control)
[13] = Postemergence, 62 g ai/ha, scale 0 to 100 (0 no effect, 100 complete control)
[14] = Postemergence, 125 g ai/ha, scale 0 to 100 (0 no effect, 100 complete control)
[15] = Postemergence, 250 g ai/ha, scale 0 to 100 (0 no effect, 100 complete control)
[16] = Preemergence, 31 g ai/ha, scale 0 to 100 (0 no effect, 100 complete control)
[17] = Preemergence, 62 g ai/ha, scale 0 to 100
[18] = Preemergence, 125 g ai/ha, scale 0 to 100 (0 no effect, 100 complete control)
[19] = Preemergence, 250 g ai/ha, scale 0 to 100 (0 no effect, 100 complete control)
[20] = 125 g ai/ha, scale 0 to 100 (0 no effect, 100 complete control)

O=C1NCC(c2cc(F)c(F)c(F)c2)C1C(=O)Nc1ccccc1F (racemic) [Compound 34]
Plant response rating, Cupgrass, Woolly [1, 12]: 0 | Plant response rating, Cupgrass, Woolly [1, 13]: 0 | Plant response rating, Cupgrass, Woolly [1, 14]: 0 | Plant response rating, Cupgrass, Woolly [1, 15]: 30 | Cupgrass, Woolly plant response rating [1, 16]: 50 | Plant response rating, Cupgrass, Woolly [1, 17]: 85 | Plant response rating, Cupgrass, Woolly [1, 18]: 95 | Plant response rating, Cupgrass, Woolly [1, 19]: 95 | Plant response rating, Cocklebur [2, 12]: 0 | Plant response rating, Cocklebur [2, 13]: 5 | Plant response rating, Cocklebur [2, 14]: 5 | Plant response rating, Cocklebur [2, 15]: 25 | Cocklebur plant response rating [2, 16]: 0 | Plant response rating, Cocklebur [2, 17]: 0 | Plant response rating, Cocklebur [2, 18]: 0 | Plant response rating, Cocklebur [2, 19]: 0 | Plant response rating, Nightshade ([3]; 62 g ai/ha, scale 0 to 100): 0 | Plant response rating, Nightshade [3, 20]: 0 | Plant response rating, Bromegrass, Downy [4, 12]: 0 | Plant response rating, Bromegrass, Downy [4, 13]: 0 | Plant response rating, Bromegrass, Downy [4, 14]: 0 | Plant response rating, Bromegrass, Downy [4, 15]: 0 | Bromegrass, Downy plant response rating [4, 16]: 0 | Plant response rating, Bromegrass, Downy [4, 17]: 0 | Plant response rating, Bromegrass, Downy [4, 18]: 10 | Plant response rating, Bromegrass, Downy [4, 19]: 30 | Plant response rating, Foxtail, Green [5, 12]: 0 | Plant response rating, Foxtail, Green [5, 13]: 60 | Plant response rating, Foxtail, Green [5, 14]: 60 | Plant response rating, Foxtail, Green [5, 15]: 60 | Foxtail, Green plant response rating [5, 16]: 98 | Plant response rating, Foxtail, Green [5, 17]: 98 | Plant response rating, Foxtail, Green [5, 18]: 98 | Plant response rating, Foxtail, Green [5, 19]: 100 | Plant response rating, Chickweed ([6]; 31 g ai/ha, scale 0 (no effect) to 100 (complete control)): 0 | Plant response rating, Chickweed ([6]; 62 g ai/ha, scale 0 to 100 (0 no effect, 100 complete control)): 0 | Plant response rating, Chickweed [6, 20]: 5 | Plant response rating, Chickweed ([6]; 250 g ai/ha, scale 0 to 100 (0 no effect, 100 complete control)): 5 | Plant response rating, Goosegrass [7, 12]: 10 | Plant response rating, Goosegrass [7, 13]: 15 | Plant response rating, Goosegrass [7, 14]: 15 | Plant response rating, Goosegrass [7, 15]: 25 | Goosegrass plant response rating [7, 16]: 0 | Plant response rating, Goosegrass [7, 17]: 5 | Plant response rating, Goosegrass [7, 18]: 10 | Plant response rating, Surinam Grass [8, 12]: 0 | Plant response rating, Surinam Grass [8, 13]: 0 | Plant response rating, Surinam Grass [8, 14]: 55 | Plant response rating, Surinam Grass [8, 15]: 60 | Plant response rating, Surinam Grass [8, 17]: 95 | Plant response rating, Surinam Grass [8, 18]: 100 | Plant response rating, Russian Thistle ([9]; 62 g ai/ha, scale 0 to 100): 0 | Plant response rating, Russian Thistle [9, 20]: 0 | Plant response rating, Bermudagrass [10, 12]: 0 | Plant response rating, Bermudagrass [10, 13]: 0 | Plant response rating, Bermudagrass [10, 14]: 0 | Plant response rating, Bermudagrass [10, 15]: 0 | Bermudagrass plant response rating [10, 16]: 0 | Plant response rating, Bermudagrass [10, 17]: 0 | Plant response rating, Bermudagrass [10, 18]: 0 | Plant response rating, Bermudagrass [10, 19]: 45 | Plant response rating Sunflower ([11]; 62 g ai/ha, scale 0 to 100): 0 | Plant response rating Sunflower [11, 20]: 0
